From ChEMBL document CHEMBL1201862, “PubChem BioAssay data set” (2004)
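How tested: cells in 96-well plates exposed to compound for 48 hours at five concentrations. GI50: concentration for 50% inhibition of growth.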 Activity calls are given as the source filed them. Rule as the data show it: active = GI50 up to about 1.1 µM and inactive = higher.

Legend:
Assay in all cases: NCI-60 cell line screen, 48 h
786-0 = tested on: 786-0
A498 = tested on: A498
A549 = tested on: A549
ACHN = tested on: ACHN
BT-549 = tested on: BT-549
CAKI-1 = tested on: CAKI-1
CCRF-CEM = tested on: CCRF-CEM
COLO 205 = tested on: COLO 205
DU-145 = tested on: DU-145
EKVX = tested on: EKVX
HCC 2998 = tested on: HCC 2998
HCT-116 = tested on: HCT-116
HCT-15 = tested on: HCT-15
HL-60 = tested on: HL-60
HOP-62 = tested on: HOP-62
HOP-92 = tested on: HOP-92
HT-29 = tested on: HT-29
Hs-578T = tested on: Hs-578T
IGROV-1 = tested on: IGROV-1
K562 = tested on: K562
LOX IMVI = tested on: LOX IMVI
M14 = tested on: M14
MDA-MB-231 = tested on: MDA-MB-231
MDA-MB-435 = tested on: MDA-MB-435
MDA-N = tested on: MDA-N
MOLT-4 = tested on: MOLT-4
Malme-3M = tested on: Malme-3M
NCI-H226 = tested on: NCI-H226
NCI-H23 = tested on: NCI-H23
NCI-H460 = tested on: NCI-H460
NCI/ADR-RES = tested on: NCI/ADR-RES
OVCAR-3 = tested on: OVCAR-3
OVCAR-5 = tested on: OVCAR-5
OVCAR-8 = tested on: OVCAR-8
PC-3 = tested on: PC-3
RPMI-8226 = tested on: RPMI-8226
RXF 393 = tested on: RXF 393
SF-268 = tested on: SF-268
SF-295 = tested on: SF-295
SF-539 = tested on: SF-539
SK-MEL-2 = tested on: SK-MEL-2
SK-MEL-5 = tested on: SK-MEL-5
SK-OV-3 = tested on: SK-OV-3
SN12C = tested on: SN12C
SNB-19 = tested on: SNB-19
SR = tested on: SR
SW-620 = tested on: SW-620
TK-10 = tested on: TK-10
U-251 = tested on: U-251
UACC-257 = tested on: UACC-257
UACC-62 = tested on: UACC-62
UO-31 = tested on: UO-31
KM12 = tested on: KM12
MCF7 = tested on: MCF7
NCI-H522 = tested on: NCI-H522
OVCAR-4 = tested on: OVCAR-4
SK-MEL-28 = tested on: SK-MEL-28
SNB-75 = tested on: SNB-75
T47D = tested on: T47D

CC(C)(C)C1CCC2c3c([nH]c4ccccc34)C3C(=O)N(c4ccccc4Cl)C(=O)C3C2C1 (stereo not given)
GI50 (786-0): 10.3 µM (inactive)
GI50 (A498): 17.9 µM (inactive)
GI50 (A549): 9.2 µM (inactive)
GI50 (ACHN): 14.1 µM (inactive)
GI50 (BT-549): 23.8 µM (inactive)
GI50 (CAKI-1): 9.12 µM (inactive)
GI50 (CCRF-CEM): 15.3 µM (inactive)
GI50 (COLO 205): > 10 µM (inactive)
GI50 (DU-145): 15.1 µM (inactive)
GI50 (EKVX): 6.65 µM (inactive)
GI50 (HCC 2998): 3.41 µM (inactive)
GI50 (HCT-116): 3.18 µM (inactive)
GI50 (HCT-15): 12.1 µM
GI50 (HL-60): 12.6 µM (inactive)
GI50 (HOP-62): 14.5 µM (inactive)
GI50 (HOP-92): 0.15 µM (active)
GI50 (HT-29): 5.86 µM (inactive)
GI50 (Hs-578T): 10.4 µM (inactive)
GI50 (IGROV-1): 25.9 µM (inactive)
GI50 (K562): 9.79 µM (inactive)
GI50 (LOX IMVI): 10.6 µM (inactive)
GI50 (M14): 17.1 µM (inactive)
GI50 (MDA-MB-231): 10.3 µM (inactive)
GI50 (MDA-MB-435): 30.7 µM (inactive)
GI50 (MDA-N): 12.1 µM (inactive)
GI50 (MOLT-4): 17.9 µM (inactive)
GI50 (Malme-3M): 17.3 µM (inactive)
GI50 (NCI-H226): > 10 µM (inactive)
GI50 (NCI-H23): 14.4 µM (inactive)
GI50 (NCI-H460): 3.48 µM (inactive)
GI50 (NCI/ADR-RES): 15.3 µM (inactive)
GI50 (OVCAR-3): 15.6 µM (inactive)
GI50 (OVCAR-5): > 10 µM (inactive)
GI50 (OVCAR-8): 16 µM (inactive)
GI50 (PC-3): 5.31 µM (inactive)
GI50 (RPMI-8226): 31.4 µM (inactive)
GI50 (RXF 393): 11.9 µM (inactive)
GI50 (SF-268): 14.4 µM (inactive)
GI50 (SF-295): 19.7 µM (inactive)
GI50 (SF-539): > 10 µM (inactive)
GI50 (SK-MEL-2): 17.5 µM (inactive)
GI50 (SK-MEL-5): 14.1 µM (inactive)
GI50 (SK-OV-3): 22.8 µM (inactive)
GI50 (SN12C): 10.6 µM (inactive)
GI50 (SNB-19): 35.8 µM (inactive)
GI50 (SR): 13.4 µM (inactive)
GI50 (SW-620): 7.94 µM (inactive)
GI50 (TK-10): 19.4 µM (inactive)
GI50 (U-251): 15.6 µM (inactive)
GI50 (UACC-257): 31.6 µM (inactive)
GI50 (UACC-62): 14 µM (inactive)
GI50 (UO-31): 14.5 µM (inactive)

C=CCOC(=O)CCCCCCCCCCCCCCCOC(=O)C1=C(CCC[C@@H](C)O[Si](C)(C)C(C)(C)C)NC(=O)N2[C@H](CC3(CC/C=C\[C@H](CC)O[Si](C(C)C)(C(C)C)C(C)C)OCCO3)CC[C@H]12
GI50 (786-0): > 100 µM (inactive)
GI50 (A498): > 100 µM (inactive)
GI50 (A549): > 100 µM (inactive)
GI50 (ACHN): > 100 µM (inactive)
GI50 (BT-549): > 100 µM (inactive)
GI50 (CAKI-1): > 100 µM (inactive)
GI50 (CCRF-CEM): > 100 µM (inactive)
GI50 (COLO 205): > 100 µM (inactive)
GI50 (DU-145): > 100 µM (inactive)
GI50 (EKVX): > 100 µM (inactive)
GI50 (HCC 2998): > 100 µM (inactive)
GI50 (HCT-116): > 100 µM (inactive)
GI50 (HCT-15): > 100 µM
GI50 (HOP-62): > 100 µM (inactive)
GI50 (HOP-92): 18.9 µM (inactive)
GI50 (KM12): > 100 µM (inactive)
GI50 (M14): > 100 µM (inactive)
GI50 (MCF7): > 100 µM (inactive)
GI50 (MDA-MB-231): > 100 µM (inactive)
GI50 (MDA-MB-435): > 100 µM (inactive)
GI50 (MDA-N): > 100 µM (inactive)
GI50 (Malme-3M): > 100 µM (inactive)
GI50 (NCI-H226): > 100 µM (inactive)
GI50 (NCI-H23): > 100 µM (inactive)
GI50 (NCI-H460): > 100 µM (inactive)
GI50 (NCI-H522): > 100 µM (inactive)
GI50 (NCI/ADR-RES): > 100 µM (inactive)
GI50 (OVCAR-3): > 100 µM (inactive)
GI50 (OVCAR-4): > 100 µM (inactive)
GI50 (OVCAR-5): > 100 µM (inactive)
GI50 (PC-3): > 100 µM (inactive)
GI50 (RPMI-8226): > 100 µM (inactive)
GI50 (SF-268): > 100 µM (inactive)
GI50 (SF-295): > 100 µM (inactive)
GI50 (SF-539): 67.3 µM (inactive)
GI50 (SK-MEL-28): > 100 µM (inactive)
GI50 (SK-MEL-2): > 100 µM (inactive)
GI50 (SK-MEL-5): > 100 µM (inactive)
GI50 (SK-OV-3): > 100 µM (inactive)
GI50 (SN12C): > 100 µM (inactive)
GI50 (SNB-19): > 100 µM (inactive)
GI50 (SNB-75): > 100 µM (inactive)
GI50 (T47D): > 100 µM (inactive)
GI50 (TK-10): > 100 µM (inactive)
GI50 (U-251): > 100 µM (inactive)
GI50 (UACC-257): > 100 µM (inactive)
GI50 (UACC-62): > 100 µM (inactive)
GI50 (UO-31): > 100 µM (inactive)
